Results as given in US9776979B2, “EBI2 modulators” (Sanford-Burnham Medical Research Institute, priority 2013, dated 2017).

Molecular target: EBI2 (Homo sapiens, UniProt P32249)
Assay: Cell-based luminescent assay (EBI2 modulation)
Conditions: cell-based luminescence; 7a,25-OHC final assay concentration 80 nM; 60 minutes incubation; read-out: IC50
Method in brief: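 Cells plated overnight at 37° C, then exposed to compound at 4-5 uM final with 80 nM 7a,25-OHC agonist for 60 min at 37° C. Luminescence read after 60 min detection at 25° C in the dark; values normalized to neutral and stimulator controls and plate-pattern corrected.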

EBI2, sequence (P32249 whole entry): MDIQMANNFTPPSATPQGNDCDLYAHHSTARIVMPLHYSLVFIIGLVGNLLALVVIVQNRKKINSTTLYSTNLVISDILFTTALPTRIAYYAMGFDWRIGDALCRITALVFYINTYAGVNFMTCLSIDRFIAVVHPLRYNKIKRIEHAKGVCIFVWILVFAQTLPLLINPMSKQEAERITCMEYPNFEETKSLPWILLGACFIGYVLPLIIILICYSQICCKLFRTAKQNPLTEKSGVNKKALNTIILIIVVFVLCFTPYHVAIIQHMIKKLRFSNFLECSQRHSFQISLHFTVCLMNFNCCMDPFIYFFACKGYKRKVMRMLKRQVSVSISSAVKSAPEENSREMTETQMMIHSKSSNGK

Row | IC50 | Structure (SMILES)
1 | < 100 nM | O=C(c1cc2cc(Cl)ccc2[nH]1)N1CCN(C(=O)c2ccc(F)cc2F)CC1 [Compound C378, 4-[(2,4-difluorophenyl)carbonyl]piperazinyl 5-chloroindol-2-yl ketone]
2 | < 100 nM | O=C(c1cc2sccc2[nH]1)N1CCN(C(c2ccccc2)c2ccccc2)CC1 [Compound C380, 4-(diphenylmethyl)piperazinyl thiopheno[2,3-d]pyrrol-5-yl ketone]
3 | < 100 nM | O=C(c1ccc(Br)cc1)N1CCN(C(=O)c2ccc3ccccc3c2)CC1 [Compound C381, 4-bromophenyl 4-(2-naphthylcarbonyl)piperazinyl ketone]
4 | < 100 nM | O=C(c1ccc(B(O)O)cc1)N1CCN(C(=O)c2cc3ccc(Br)cc3[nH]2)CC1 [Compound C382, 4-(4-(6-bromo-1H-indole-2-carbonyl)piperazine-1-carbonyl)phenylboronic acid]
5 | < 100 nM | O=C(C#Cc1ccc(Cl)cc1)N1CCN(Cc2ccc(Cl)cc2)CC1 [Compound C384, 3-(4-chlorophenyl)-1-{4-[(4-chlorophenyl)methyl]piperazinyl}prop-2-yn-1-one]
6 | < 100 nM | COc1ccc(/C=C/C(=O)N2CCN(S(=O)(=O)c3ccc(C(C)(C)C)cc3)CC2)cc1 [Compound C385, (2E)-1-(4-{[4-(tert-butyl)phenyl]sulfonyl}piperazinyl)-3-(4-methoxyphenyl)prop-2-en-1-one]
7 | 100 to 500 nM | O=C(c1cc2cc(Cl)ccc2[nH]1)N1CCC(Oc2ccc(C(F)(F)F)cc2)CC1 [Compound C390, 5-chloroindol-2-yl 4-[4-(trifluoromethyl)phenoxy]piperidyl ketone]
8 | < 100 nM | O=C(c1ccc(C(F)(F)F)cc1)N1CCN(C(=O)c2cc3ccc(Cl)cc3[nH]2)CC1 [Compound C391, 6-chloroindol-2-yl 4-{[4-(trifluoromethyl)phenyl]carbonyl}piperazinyl ketone]
9 | < 100 nM | CC(C)CN1CCN(C(=O)/C=C/c2ccccc2)CC1 [Compound C392, (2E)-1-[4-(methylpropyl)piperzinyl]-3-phenylprop-2-en-1-one]
10 | < 100 nM | N#Cc1cccc(C(=O)N2CCN(C(=O)c3cc4cc(Cl)ccc4[nH]3)CC2)c1 [Compound C395, 3-({4-[(5-chloroindol-2-yl)carbonyl]piperazinyl}carbonyl)benzenecarbonitrile]
11 | < 100 nM | O=C(Nc1cccc(Cl)c1)C1CCN(C(=O)c2cc3cc(Cl)ccc3[nH]2)CC1 [Compound C396, {1-[(5-chloroindol-2-yl)carbonyl](4-piperidyl)}-N-(3-chlorophenyl)carboxamide]
12 | < 100 nM | O=Cc1ccc(C(=O)N2CCN(C(=O)c3cc4cc(Cl)ccc4[nH]3)CC2)cc1 [Compound C397, 4-({4-[(5-chloroindol-2-yl)carbonyl]piperazinyl}carbonyl)benzaldehyde]
13 | < 100 nM | O=C(C#Cc1ccc(Cl)cc1)N1CCN(C(=O)c2ccc(F)cc2C(F)(F)F)CC1 [Compound C399, 3-(4-chlorophenyl)-1-(4-{[4-fluoro-2-(trifluoromethyl)phenyl]carbonyl}piperazinyl)prop-2-yn-1-one]
14 | < 100 nM | Cc1cccc(N2CCN(C(=O)c3cc4cc(Cl)ccc4[nH]3)CC2)c1C [Compound C400, 4-(2,3-dimethylphenyl)piperazinyl 5-chloroindol-2-yl ketone]
15 | < 100 nM | O=C(C#Cc1ccc(Br)cc1)N1CCN(Cc2ccc(F)cc2)CC1 [Compound C401, 3-(4-bromophenyl)-1-{4-[(4-fluorophenyl)methyl]piperazinyl}prop-2-yn-1-one]
16 | < 100 nM | O=C(c1cc2cc(Cl)ccc2[nH]1)N1CCN(Cc2ccc(C(F)(F)F)c(F)c2)CC1 [Compound C402, 5-chloroindol-2-yl 4-{[3-fluoro-4-(trifluoromethyl)phenyl]methyl}piperazinyl ketone]
17 | < 100 nM | O=C(c1cc2cc(Cl)ccc2[nH]1)N1CCN(Cc2cccc(-c3ccccc3)c2)CC1 [Compound C403, 5-chloroindol-2-yl 4-[(3-phenylphenyl)methyl]piperazinyl ketone]
18 | < 100 nM | O=C(/C=C/c1ccc(Br)cc1F)N1CCN(S(=O)(=O)c2ccccc2)CC1 [Compound C404, (2E)-3-(4-bromo-2-fluorophenyl)-1-[4-(phenylsulfonyl)piperazinyl]prop-2-en-1-one]
19 | 100 to 500 nM | O=C(/C=C/c1ccccc1)N1CCN(CCOc2ccc(Cl)cc2Cl)CC1 [Compound C407, (2E)-1-{4-[2-(2,4-dichlorophenoxy)ethyl]piperazinyl}-3-phenylprop-2-en-1-one]
20 | 100 to 500 nM | O=C(C#Cc1ccc(Br)cc1)N1CCN(Cc2ccc(C(F)(F)F)cc2)CC1 [Compound C408, 3-(4-bromophenyl)-1-(4-{[4-(trifluoromethyl)phenyl]methyl}piperazinyl)prop-2-yn-1-one]

Row | IC50 | Structure (SMILES)
21 | 100 to 500 nM | O=C(c1ccc(B(O)O)cc1)N1CCN(C(=O)c2cc3cc(Cl)ccc3[nH]2)CC1 [Compound C409, 4-(4-(5-chloro-1H-indole-2-carbonyl)piperazine-1-carbonyl)phenylboronic acid]
22 | 100 to 500 nM | O=C(c1cc2cc(Cl)ccc2[nH]1)N1CCC(Oc2ccccc2)CC1 [Compound C413, 5-chloroindol-2-yl 4-phenoxypiperidyl ketone]
23 | 100 to 500 nM | O=C(Oc1ccccc1)N1CCN(C(=O)c2cc3cc(Cl)ccc3[nH]2)CC1 [Compound C416, phenyl 4-[(5-chloroindol-2-yl)carbonyl]piperazinecarboxylate]
24 | 100 to 500 nM | O=C(Nc1cccc(F)c1)C1CCN(C(=O)c2cc3cc(Cl)ccc3[nH]2)CC1 [Compound C417, {1-[(5-chloroindol-2-yl)carbonyl](4-piperidyl)}-N-(3-fluorophenyl)carboxamide]
25 | 100 to 500 nM | O=C(c1cc2cc(Cl)ccc2[nH]1)N1CCN(Cc2ccc(F)c(C(F)(F)F)c2)CC1 [Compound C420, 5-chloroindol-2-yl 4-{[4-fluoro-3-(trifluoromethyl)phenyl]methyl}piperazinyl ketone]
26 | 100 to 500 nM | COc1ccc(-c2ccc(S(=O)(=O)N3CCN(C(=O)c4cc5cc(Cl)ccc5[nH]4)CC3)cc2)cc1 [Compound C421, 5-chloroindol-2-yl 4-{[4-(4-methoxyphenyl)phenyl]sulfonyl}piperazinyl ketone]
27 | 100 to 500 nM | O=C(c1cc2cc(Cl)ccc2[nH]1)N1CCN(Cc2cc(C(F)(F)F)cc(C(F)(F)F)c2)CC1 [Compound C423, 4-{[3,5-bis(trifluoromethyl)phenyl]methyl}piperazinyl 5-chloroindol-2-yl ketone]
28 | 100 to 500 nM | O=C(c1cc2cc(Cl)ccc2[nH]1)N1CCN(Cc2ccc(F)cc2C(F)(F)F)CC1 [Compound C426, 5-chloroindol-2-yl 4-{[4-fluoro-2-(trifluoromethyl)phenyl]methyl}piperazinyl ketone]
29 | 100 to 500 nM | O=C(c1cc2cc(Cl)ccc2[nH]1)N1CCN(Cc2ccc(F)cc2F)CC1 [Compound C427, 4-[(2,4-difluorophenyl)methyl]piperazinyl 5-chloroindol-2-yl ketone]
30 | 100 to 500 nM | O=C(c1cc2cc(Cl)ccc2[nH]1)N1CCN(Cc2ccc(Cl)cc2C(F)(F)F)CC1 [Compound C428, 5-chloroindol-2-yl 4-{[4-chloro-2-(trifluoromethyl)phenyl]methyl}piperazinyl ketone]
31 | 100 to 500 nM | O=C(Nc1ccc(Cl)cc1)N1CCN(C(=O)c2cc3cc(Cl)ccc3[nH]2)CC1 [Compound C429, {4-[(5-chloroindol-2-yl)carbonyl]piperazinyl}-N-(4-chlorophenyl)carboxamide]
32 | 100 to 500 nM | O=C(C=Cc1ccc2c(c1)OCO2)N1CCN(C(=O)c2ccc(C(F)(F)F)cc2)CC1 [Compound C430, 3-(2H-benzo[3,4-d]1,3-dioxolen-5-yl)-1-(4-{[4-(trifluoromethyl)phenyl]carbonyl}piperazinyl)prop-2-en-1-one]
33 | 100 to 500 nM | O=C(c1cc2cc(Cl)ccc2[nH]1)N1CCN(c2ccc(F)cc2F)CC1 [Compound C434, 4-(2,4-difluorophenyl)piperazinyl 5-chloroindol-2-yl ketone]
34 | 100 to 500 nM | O=C(C#Cc1ccc(Cl)cc1)N1CCN(Cc2ccc(F)cc2C(F)(F)F)CC1 [Compound C435, 3-(4-chlorophenyl)-1-(4-{[4-fluoro-2-(trifluoromethyl)phenyl]methyl}piperazinyl)prop-2-yn-1-one]
35 | 100 to 500 nM | O=C(c1cc(Br)c[nH]1)N1CCN(C(c2ccccc2)c2ccccc2)CC1 [Compound C436, 4-(diphenylmethyl)piperazinyl 4-bromopyrrol-2-yl ketone]
36 | 100 to 500 nM | O=C(C#Cc1ccc(Cl)c(Cl)c1)N1CCN(C(=O)c2ccc(F)cc2C(F)(F)F)CC1 [Compound C437, 3-(3,4-dichlorophenyl)-1-(4-{[4-fluoro-2-(trifluoromethyl)phenyl]carbonyl}piperazinyl)prop-2-yn-1-one]
37 | 100 to 500 nM | O=C(/C=C/c1ccc(Cl)cc1F)N1CCN(S(=O)(=O)c2ccccc2)CC1 [Compound C439, (2E)-3-(4-chloro-2-fluorophenyl)-1-[4-(phenylsulfonyl)piperazinyl]prop-2-en-1-one]
38 | 100 to 500 nM | O=C(c1cccc(B(O)O)c1)N1CCN(C(=O)c2cc3cc(Cl)ccc3[nH]2)CC1 [Compound C440, 3-(4-(5-chloro-1H-indole-2-carbonyl)piperazine-1-carbonyl)phenylboronic acid]
39 | 100 to 500 nM | O=C(/C=C/c1cc(Br)ccc1F)N1CCN(C(c2ccccc2)c2ccccc2)CC1 [Compound C441, (2E)-1-[4-(diphenylmethyl)piperazinyl]-3-(5-bromo-2-fluorophenyl)prop-2-en-1-one]

Row | Structure (SMILES) | IC50
40 | O=C(/C=C/c1ccc(Br)cc1F)N1CCN(S(=O)(=O)c2ccc(Br)cc2)CC1 [Compound C377, (2E)-3-(4-bromo-2-fluorophenyl)-1-{4-[(4-bromophenyl)sulfonyl]piperazinyl}prop-2-en-1-one] | < 100 nM
41 | O=C(CCc1ccc(F)cc1)N1CCN(S(=O)(=O)/C=C/c2ccccc2)CC1 [Compound C406, 1-{4-[((1E)-2-phenylvinyl)sulfonyl]piperazinyl}-3-(4-fluorophenyl)propan-1-one] | 100 to 500 nM
